Laboratory results: patent US6407135B1, “Conjugates of dithiocarbamates with pharmacologically active agents and uses therefor” (Medinox, Inc., priority 1997, dated 2002)

Tested on: Lewis male rats
Conditions: high doses, oral daily days 5-8 and 11-14; naproxen 10 mg/kg, conjugate 18 mg/kg

COc1ccc2cc([C@H](C)C(=O)O)ccc2c1 [Naproxen, (S)-(+)-methoxy-α-methyl-2-naphthaleneacetic acid]
Reduction of swelling compared to control by day 15: approximately 70%
